These results are taken from publication PMC12287680, “Efficient Acyloxymethylation of Psilocin and Other Tryptamines Yielding ACOM Prodrugs for Psychedelic‐Assisted Therapy” (Archiv Der Pharmazie, 2025).

Series [1] in a line: Half-lives in PBS at 80°C (nonspecific hydrolysis). It is filed as physicochemical. Conditions: for half-life at 50 µM: pH 7.3, PBS, 80°C, 5·10^−5 M, footnote: no replicates; for stability in buffer compared with plasma: buffer at 80°C versus plasma at 37°C, same concentration. The method, then:
As a measure of the drug release rate in the systemic blood circulation, we determined the half‐lives of 15, 16, and 23–26 in pooled human plasma. […] This illustrates that the drug release kinetics in human plasma are highly dependent upon the chosen acyl residue, which allows for tailoring the prodrug's pharmacokinetic profile to the therapeutic requirements. To assess the contribution of nonspecific hydrolysis to the observed kinetics, we incubated the prodrugs at the same concentration in the buffer used to dilute the plasma samples.
(§1) The kinetic studies were carried out by following the loss of substrate under the indicated conditions using HPLC‐UV. Pooled human plasma was obtained commercially (Biowest, France), while human saliva was freshly collected with the written informed consent of the saliva donors. In a typical run, the reaction was initiated by adding the prewarmed medium to a prewarmed aliquot of a 5 mM stock solution of the analyte in DMSO, resulting in a final concentration of 5·10^−5 M. A volume of 100 µL samples of the reaction mixture were taken at suitable intervals, and the reaction was either stopped by cooling to –20°C (PBS) or by protein precipitation using 2:1 (v/v) acetonitrile (saliva, plasma). Precipitates were removed by centrifugation and decantation prior to HPLC analysis. Pseudo‐first‐order rate constants for the observed degradation were determined from the slope of linear plots of ln(peak area) versus time. More detailed descriptions are provided in the Supporting Information.

The nature of series [2]: Half-lives in human saliva at 37°C. It is filed as in vitro ADME. Conditions: fresh resting whole human saliva, mean of three measurements with fresh samples of three individuals, 5·10^−5 M, read-out: Half‐lives t 1/2 at 37°C in human Saliva. The procedure:
Finally, we studied the stability of the compounds in human saliva. […] In line with the literature, the stability of a given compound in human saliva varied considerably between subjects (Figure 7).
as §1

Series [3] in a line: Half-lives in pooled human plasma at 37°C. It counts as in vitro ADME. The conditions noted are these: for half-lives t1/2 in human plasma (v/v) at 37°C: 100% plasma, [prodrug]0 =50 µM. The method, then: As a measure of the drug release rate in the systemic blood circulation, we determined the half‐lives of 15, 16, and 23–26 in pooled human plasma. […] To assess the contribution of nonspecific hydrolysis to the observed kinetics, we incubated the prodrugs at the same concentration in the buffer used to dilute the plasma samples.
as §1
^a The release kinetics of the prodrugs were evaluated in vitro in analogy to the precedent literature.^[1] […] Pooled human blood plasma (Biowest, France) and sterile Dulbecco’s phosphate buffered saline (PBS) pH 7.3 (Sigma-Aldrich, Germany) were used for all experiments. In short, prewarmed (37°C) human plasma and prewarmed (37°C) prodrug (5 mM stock in DMSO) were gently mixed, which afforded a 50 µM solution of the prodrug in human plasma. Incubation was continued at 37°C, and 100 µL samples of the mixture were taken at appropriate time intervals. The samples were immediately quenched with acetonitrile (2:1), centrifuged, decanted, and analyzed via HPLC-UV. Half-lives were determined assuming first-order kinetics; specific values are the mean of triplicates ± standard deviation. For more details, please refer to the SI.

Series [4] is described as follows: Passive membrane permeability across an artificial membrane. It counts as in vitro ADME. Conditions: for Papp: PAMPA, pH 7.4, read-out: Passive membrane permeability Pe. An excerpt: As expected, all tested prodrugs have a high propensity for passive passage across an artificial membrane at pH 7.4 (≥ 8·10^−6 cm/s). […] The loss of the intramolecular hydrogen bond between the phenolic hydroxy group and the tertiary amino group upon O‐substitution appears to decrease the membrane permeability of the prodrugs in comparison to the parent drug. This effect is apparently not entirely compensated by the ACOM promoiety, which in itself is not completely apolar due to the acetal and ester oxygens. The intramolecular hydrogen bond may reduce the polarity of 4‐hydroxytryptamines by introducing a conformational restraint and thereby favoring conformations with a smaller polar surface area and a lower dipole moment and by decreasing hydrogen bonding to the aqueous solvent. In addition, the intramolecular hydrogen bond in 4‐hydroxytryptamines lowers the pK a of the amine and therefore shifts the protonation equilibrium toward the neutral species. The higher proportion of the uncharged species in 4‐hydroxytryptamines compared with their O‐substituted congeners further increases the difference in passive membrane permeability.
(In PAMPA a lipid-coated filter parts donor from acceptor wells.)

For series [5] the following is noted: pH 7.4; cited from earlier work.
The conditions of series [6]: cited from earlier work.
The conditions of series [7]: in DMSO; cited from earlier work.
Details of series [8]: method as in earlier work. The conditions noted are these: rats, ref 10b, cited from earlier work.
Setting [9] is: 100% (undiluted) pooled human plasma, 37°C, 100% pooled human plasma, 5·10^−5 M.
[10] abbreviates: 10% pooled human plasma in PBS, pH 7.3, 37°C, 10% pooled human plasma diluted with PBS, 5·10^−5 M.
The mark [11] stands for this setting: diluted pooled human plasma, pH 7.3, even in diluted human plasma, read-out: half‐lives in human plasma.

One may read the logP as a log measure of how a compound divides between an organic and an aqueous phase.

SMILES strings stand for the structures. Structures can show the parent of a compound that is named as a salt. Marks after values point to notes of the source that are not given here.

As to `CCN(C)CCc1c[nH]c2cccc(OCOC(=O)C(C)(C)C)c12` [Compound 23], the half-life at 50 µM in series [1] was 534 ± 12 min; in series [2], below 20 min; in series [3] (setting [9]), above 240 min. Also, the “half-lives t1/2 in human plasma (v/v) at 37°C” value (“half-lives t1/2 in human plasma” below) in series [3] (37°C) is reported as > 240 (100%) min. The “drug release in undiluted human plasma during the observation period” value (“drug release” below) in series [3] (37°C) was “Neither the N‐carbamates 15 and 16 nor the sterically hindered pivaloyloxymethyl ethers 23 and 25 showed significant drug release”. In series [4], the Papp is 9.7 ± 0.6 ×10⁻⁶ cm/s. The “Passive membrane permeability R (%) (mass retention)” value (shortened to “Passive membrane permeability R (%)”) in series [4] (pH 7.4) came out at 2%.

As to `CNS(=O)(=O)Cc1ccc2[nH]cc(CCN(C)C)c2c1` [sumatriptan], the logD7.4 in series [5] is reported as −1.3. The logP in series [6] is listed as 0.93. For the same compound, the “sulfonamide pKa” value in series [7] is ~ 17.5.

Turning to `CN(C)CCc1c[nH]c2cccc(OCOC(=O)C(C)(C)C)c12` [Compound 25], the half-life at 50 µM in series [1] was 458 ± 23 min; in series [2], below 20 min; in series [3] (setting [9]) it was above 240 min. Besides, the “half-lives t1/2 in human plasma” value in series [3] (37°C) was > 240 (100%)^b min. In series [3] (in vitro), the “chemical and plasma stability, in words” value was “high chemical and plasma stability”. Further, the “drug release” value in series [3] (37°C) is “Neither the N‐carbamates 15 and 16 nor the sterically hindered pivaloyloxymethyl ethers 23 and 25 showed significant drug release”. The Papp in series [4] stood at 9.1 ± 0.5 ×10⁻⁶ cm/s. Moreover, in series [4] (pH 7.4), the “Passive membrane permeability R (%)” value came to 4%.

Take `CC(=O)Oc1ccccc1C(=O)O` [ASA, Acetylsalicylic acid, reference compound]: the half-life at 50 µM in series [1] is 27.9 ± 0.3 min; in series [2] it was above 60 min.

For the compound `CCN(C)CCc1cn(C(=O)OCc2ccccc2)c2cccc(O)c12` [Compound 15], the half-life at 50 µM in series [1] was 136 ± 4 min; in series [3] (setting [9]), above 5700 min. Moreover, the “half-lives t1/2 in human plasma” value in series [3] (37°C) is recorded as > 5700 (100%) min. Further, the “drug release” value in series [3] (37°C) is “Neither the N‐carbamates 15 and 16 nor the sterically hindered pivaloyloxymethyl ethers 23 and 25 showed significant drug release”.

For the compound `CN(C)CCc1c[nH]c2cccc(OP(=O)(O)O)c12` [psilocybin], the logD7.4 in series [5] is recorded as −0.89.

On to `CN(C)CCc1c[nH]c2cccc(OCOC(=O)C(C)(C)C)c12` [Compound 2], for which the “detected systemic psilocin level” value in series [8] (peroral dosing) is “relatively low”. In addition, the “prodrug behaviour upon peroral dosing” value in series [8] was “acts as a psilocin prodrug”.

For `CCN(C)CCc1c[nH]c2cccc(O)c12` [Compound 30, reference compound], in series [4] (pH 7.4), the “Passive membrane permeability Pe” value was 11 ± 1 10^−6cm/s; the “Passive membrane permeability R (%)” value is on record as 29%; the “mass retention (R%), in words” value is on record as “remarkably high”. Besides, the “membrane permeability, ranking” value in series [4] (pH 7.4, compared with the prodrugs) is listed as “highest membrane permeability”.

`CCCC(=O)OCOc1cccc2[nH]cc(CCN(C)C)c12` [Compound 26, 4‐n‐Butanoyloxymethyloxy‐N,N‐Dimethyltryptammonium Fumarate]: the “stability in buffer compared with plasma” value in series [1] is given as “significantly more stable in buffer than in plasma”. In addition, the half-life at 50 µM in series [1] is 58.6 ± 3.5 min; in series [2] it was below 10 min; in series [3] (setting [10]), 3.5 ± 0.8 min; in series [3] (setting [9]), 0.48 ± 0.1 min; in series [3] (setting [11]), below 5 min. Moreover, the Papp in series [4] amounted to 8.1 ± 0.8 ×10⁻⁶ cm/s. Further, the “Passive membrane permeability R (%)” value in series [4] (pH 7.4) is recorded as 7 ^e %.

Compound `CN(C)CCc1cn(C(=O)OCc2ccccc2)c2cccc(O)c12` [Compound 16, 1‐Benzyloxycarbonyl‐4‐Hydroxy‐N,N‐Dimethyltryptamine] displayed a half-life at 50 µM in series [1] of 184 ± 5 min. For the same compound, in series [3] (setting [9]), the half-life at 50 µM was above 5700 min. In series [3] (37°C), the “half-lives t1/2 in human plasma” value is > 5700 (100%) min; the “drug release” value is “Neither the N‐carbamates 15 and 16 nor the sterically hindered pivaloyloxymethyl ethers 23 and 25 showed significant drug release”.

With `CCCC(=O)OCOc1cccc2[nH]cc(CCN(C)CC)c12` [Compound 24], the “stability in buffer compared with plasma” value in series [1] is given as “significantly more stable in buffer than in plasma”. Also, the half-life at 50 µM in series [1] was 73.3 ± 1.2 min; in series [2], below 10 min; in series [3] (setting [10]), 4.2 ± 0.1 min; in series [3] (setting [11]) it was below 5 min. The Papp in series [4] is 8 ± 0.3 ×10⁻⁶ cm/s. Further, the “Passive membrane permeability R (%)” value in series [4] (pH 7.4) amounted to 6%.
